Data reported in the supplement of paper PMC10307832.

Experiments:
Assay in all cases: relative viability (nuclei count vs DMSO), 5 days (fraction); higher = more cells survive
Bosutinib + Tozasertib = compound: COc1cc(Nc2c(C#N)cnc3cc(OCCCN4CCN(C)CC4)c(OC)cc23)c(Cl)cc1Cl [Bosutinib] + Cc1cc(Nc2cc(N3CCN(C)CC3)nc(Sc3ccc(NC(=O)C4CC4)cc3)n2)n[nH]1 [Tozasertib] (partner 0.1 µM)
Summary of the method: (§1)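 Nuclei were stained with Hoechst during a one-step fixation (final 0.05% Triton X-100, 1% formaldehyde, 1 ug/ml Hoechst) carried out 5 days after dosing, then counted on 4× images. The cells, lung cancer lines in 1536-well plates, had been dosed by pin tool the day after seeding with one drug alone or a fixed anchor-drug dose plus five library-drug doses (not always all listed) in √10 steps. Relative viability is the nuclei count in treated wells divided by that in vehicle wells, and each value is the median of duplicate plates.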

Bosutinib + Navitoclax = compound: COc1cc(Nc2c(C#N)cnc3cc(OCCCN4CCN(C)CC4)c(OC)cc23)c(Cl)cc1Cl [Bosutinib] + CC1(C)CCC(c2ccc(Cl)cc2)=C(CN2CCN(c3ccc(C(=O)NS(=O)(=O)c4ccc(N[C@H](CCN5CCOCC5)CSc5ccccc5)c(S(=O)(=O)C(F)(F)F)c4)cc3)CC2)C1 [Navitoclax] (partner 0.5 µM)
Summary of the method: as §1

Bosutinib + OSI-027 = compound: COc1cc(Nc2c(C#N)cnc3cc(OCCCN4CCN(C)CC4)c(OC)cc23)c(Cl)cc1Cl [Bosutinib] + COc1cccc2cc(-c3nc([C@H]4CC[C@H](C(=O)O)CC4)n4ncnc(N)c34)[nH]c12 [OSI-027] (partner 0.5 µM)
Summary of the method: as §1

Bosutinib + Foretinib = compound: COc1cc(Nc2c(C#N)cnc3cc(OCCCN4CCN(C)CC4)c(OC)cc23)c(Cl)cc1Cl [Bosutinib] + COc1cc2c(Oc3ccc(NC(=O)C4(C(=O)Nc5ccc(F)cc5)CC4)cc3F)ccnc2cc1OCCCN1CCOCC1 [Foretinib] (partner 0.25 µM)
Summary of the method: as §1

Bosutinib + Pemetrexed = compound: COc1cc(Nc2c(C#N)cnc3cc(OCCCN4CCN(C)CC4)c(OC)cc23)c(Cl)cc1Cl [Bosutinib] + Nc1nc2[nH]cc(CCc3ccc(C(=O)N[C@@H](CCC(=O)O)C(=O)O)cc3)c2c(=O)[nH]1 [Pemetrexed] (partner 0.2 µM)
Summary of the method: as §1

| Cell Line | relative viability (Bosutinib + Tozasertib; first compound 0.01 µM) | relative viability (Bosutinib + Tozasertib; first compound 0.03162 µM) | relative viability (Bosutinib + Tozasertib; first compound 0.1 µM) | relative viability (Bosutinib + Tozasertib; first compound 1 µM) | relative viability (Bosutinib + Navitoclax; first compound 0.01 µM) | relative viability (Bosutinib + Navitoclax; first compound 0.03162 µM) | relative viability (Bosutinib + Navitoclax; first compound 0.1 µM) | relative viability (Bosutinib + Navitoclax; first compound 1 µM) | relative viability (Bosutinib + OSI-027; first compound 0.01 µM) | relative viability (Bosutinib + OSI-027; first compound 0.03162 µM) | relative viability (Bosutinib + OSI-027; first compound 0.1 µM) | relative viability (Bosutinib + OSI-027; first compound 1 µM) | relative viability (Bosutinib + Foretinib; first compound 0.01 µM) | relative viability (Bosutinib + Foretinib; first compound 0.03162 µM) | relative viability (Bosutinib + Foretinib; first compound 0.1 µM) | relative viability (Bosutinib + Foretinib; first compound 1 µM) | relative viability (Bosutinib + Pemetrexed; first compound 0.01 µM) | relative viability (Bosutinib + Pemetrexed; first compound 0.03162 µM) | relative viability (Bosutinib + Pemetrexed; first compound 0.1 µM) | relative viability (Bosutinib + Pemetrexed; first compound 1 µM) |
| --- | --- | --- | --- | --- | --- | --- | --- | --- | --- | --- | --- | --- | --- | --- | --- | --- | --- | --- | --- | --- |
| NCI-H1734 | 0.245 | 0.242 | 0.245 | 0.248 | 0.808 | 0.827 | 0.853 | 0.737 | 0.584 | 0.609 | 0.684 | 0.538 | 0.888 | 0.837 | 0.849 | 0.719 | 0.401 | 0.392 | 0.445 | 0.377 |
| NCI-H1755 | 0.585 | 0.736 | 0.605 | 0.5 | 0.971 | 1.02 | 1.04 | 0.925 | 0.786 | 0.853 | 0.803 | 0.663 | 0.974 | 0.988 | 0.983 | 0.801 | 0.405 | 0.488 | 0.468 | 0.45 |
| NCI-H1793 | 0.363 | 0.404 | 0.373 | 0.23 | 0.466 | 0.479 | 0.456 | 0.263 | 0.254 | 0.276 | 0.262 | 0.23 | 0.61 | 0.664 | 0.58 | 0.473 | 0.86 | 0.792 | 0.829 | 0.639 |
| NCI-H1915 | 0.438 | 0.449 | 0.429 | 0.419 | 0.802 | 0.824 | 0.823 | 0.81 | 0.646 | 0.671 | 0.71 | 0.669 | 1.07 | 1.1 | 1.11 | 1.11 | 0.461 | 0.504 | 0.533 | 0.46 |
| NCI-H1944 | 0.275 | 0.262 | 0.258 | 0.19 | 1.06 | 1.08 | 1.04 | 0.956 | 0.436 | 0.412 | 0.379 | 0.374 | 0.997 | 0.814 | 0.889 | 0.574 | 0.706 | 0.624 | 0.555 | 0.601 |
| NCI-H1975 | 0.739 | 0.871 | 0.687 | 0.583 | 1 | 1.06 | 1.1 | 0.991 | 0.735 | 0.761 | 0.697 | 0.534 | 0.981 | 0.975 | 0.977 | 0.841 | 0.287 | 0.289 | 0.292 | 0.281 |
| NCI-H1993 | 0.549 | 0.538 | 0.564 | 0.496 | 0.871 | 0.968 | 0.957 | 0.742 | 0.54 | 0.541 | 0.539 | 0.469 | 0.819 | 0.672 | 0.778 | 0.564 | 0.506 | 0.663 | 0.611 | 0.686 |
| NCI-H2009 | 0.732 | 0.82 | 0.73 | 0.572 | 1.22 | 1.2 | 1.21 | 1.08 | 0.681 | 0.799 | 0.746 | 0.522 | 1.22 | 1.24 | 1.2 | 0.857 | 0.944 | 1.06 | 1.17 | 0.946 |
| NCI-H2023 | 0.295 | 0.462 | 0.399 | 0.233 | 1 | 1.01 | 1.03 | 0.92 | 0.477 | 0.429 | 0.377 | 0.362 | 0.874 | 0.921 | 0.81 | 0.498 | 0.218 | 0.263 | 0.23 | 0.223 |
| NCI-H2085 | 0.782 | 0.692 | 0.765 | 0.738 | 1.14 | 1.13 | 1.11 | 1.2 | 0.741 | 0.781 | 0.726 | 0.462 | 0.949 | 0.983 | 0.806 | 0.935 | 0.869 | 0.863 | 0.87 | 0.736 |
| NCI-H2087 | 0.293 | 0.227 | 0.222 | 0.271 | 0.905 | 0.926 | 0.972 | 1.04 | 0.685 | 0.701 | 0.727 | 0.727 | 1.02 | 1.02 | 1.17 | 1.1 | 0.705 | 0.626 | 0.741 | 0.631 |
| NCI-H2126 | 0.823 | 0.811 | 0.828 | 0.763 | 0.797 | 0.904 | 0.85 | 0.776 | 0.678 | 0.784 | 0.753 | 0.688 | 1.08 | 1.12 | 1.25 | 1.14 | 0.659 | 0.645 | 0.694 | 0.658 |
| NCI-H2170 | 0.749 | 0.758 | 0.683 | 0.632 | 0.527 | 0.67 | 0.702 | 0.468 | 0.7 | 0.684 | 0.732 | 0.654 | 0.959 | 1 | 1.01 | 0.962 | 0.261 | 0.262 | 0.251 | 0.26 |
| NCI-H2228 | 0.313 | 0.319 | 0.306 | 0.287 | 0.84 | – | 1.03 | 0.732 | 0.489 | 0.533 | 0.577 | 0.609 | 0.762 | 0.931 | 0.887 | 0.744 | 0.354 | 0.308 | 0.361 | 0.319 |
| NCI-H2347 | 0.599 | 0.571 | 0.638 | 0.514 | 0.797 | 0.793 | 0.752 | 0.781 | 0.347 | 0.436 | 0.436 | 0.385 | 0.929 | 0.878 | 0.988 | 0.885 | 0.434 | 0.469 | 0.462 | 0.421 |
